Key:
[1] = system: HUVEC cells; experiment: HGF/SF-induced HUVEC cell proliferation ([3H]-thymidine incorporation); type: cell-based, human; conditions: HGF/SF 25 ng/ml, overnight, FIG. 1A
Procedure: Compounds of the invention were tested for HGF/SF inhibitory activity in HGF/SF-induced HUVEC cell proliferation in vitro. Briefly, HUVEC cells were seeded into 48-well plates and serum starved for 2 hours in medium containing 1% BSA, and then treated with test compounds in multiple concentrations in the presence or absence of HGF/SF (25 ng/ml, R&D Systems) overnight. This experiment also included negative (vehicle alone) and positive (HGF/SF alone) controls. Cell proliferation was measured by the incorporation of [^3H]-thymidine and counted using Beta scintillation counter.

[2] = system: A549 human lung carcinoma cells; experiment: MTT assay, cell viability; type: cell-based; conditions: 72 hours continuous exposure
Procedure: To investigate the effect of c-Met antagonist compound A on inhibiting the growth of A549 human lung carcinoma cells in vitro, an MTT assay was carried out to determine cell viability. Cells were plated in 96-well plates at 5000 cells/well in complete medium, in the absence of drug. After 24 hours to allow for cell attachment, cells were incubated for 72 hours with the tested compounds (5 different concentrations) or vehicle. Cells were then exposed to MTT for 4 hours, and absorbance was measured at a wavelength of […].

[3] = system: A549 human lung carcinoma cells; experiment: A549 subcutaneous xenograft; type: in vivo, Balb C nude mice; conditions: 5 mg/kg i.p. daily for 3 weeks
Procedure: To investigate the effect of c-Met antagonist compound A on inhibiting the growth of A549 human lung carcinoma cells in vivo, 2×10^6 cells of A549 were injected subcutaneously into the right hind flank of male Balb C nude mice. Tumors were allowed to develop for 12 days and then animals were treated with compound A at 5 mg/kg i.p. daily for 3 weeks. Tumor size measurements were made twice weekly and volumes calculated ((length×width^2)/2 (mm^3)) Final weight of excised tumors was measured at the end of the 3-week treatment period (0.78 g for control vs. 0.05 g for compound A treated).

Row | IC50 [2] [nM] | Compound | inhibition of HGF/SF stimulation of endothelial cell proliferation [1] | tumor volume and weight [3] | final weight of excised tumors ([3]; control 0.78 g) [g]
1 |  | CC(C)=CC1C(CNc2nc(Nc3ccccc3C(C)C)c3ccccc3n2)C1(C)C (centres unmarked) [B] | inhibited HGF/SF stimulation of endothelial cell proliferation |  | 
2 | 2900 | OCc1ccccc1Sc1ccccc1CNc1nc(NC2CCCC2)c2ccccc2n1 [compound A] | inhibited HGF/SF stimulation of endothelial cell proliferation | significantly reduced tumor volume and weight | 0.05

— patent publication US20060025406A1, “Modulators of hepatocyte growth factor/c- Met activity” (Angion Biomedica Corporation, priority 2004, published 2006)
